Experimental data: PMC6651454, “An Established HPLC-MS/MS Method for Evaluation of the Influence of Salt Processing on Pharmacokinetics of Six Compounds in Cuscutae Semen” (Molecules, 2019)
Like-named read-outs stand apart in the source and are kept apart here.

Assay: Pharmacokinetics in rat plasma after oral administration of SF-CS and SP-CS extracts (HPLC-MS/MS)
Assay type: in vivo, Male Sprague-Dawley rats
Details: for Tmax / AUC(0-inf) / Cmax / AUC(0-t) / MRT last: male, Sprague-Dawley; for Tmax / AUC(0-inf) / Cmax / AUC(0-t) / MRT last / AUC(0–24h) / T1/2ka / T1/2α / Shape of plasma concentration-time profile: rat plasma; for AUC(0-t): read-out: AUC0–24h; for MRT last: read-out: MRT0–24h; for Shape of plasma concentration-time profile: oral SF-CS and SP-CS extracts
Description: All components were measured on an Agilent 1200 HPLC system (Agilent Corporation, Santa Clara, CA, USA) and API 3200 triple quadrupole mass spectrometer (Concord, ON, Canada) in negative ion mode. Acetonitrile (A) and 0.1% formic acid-water (B) were used to separate the analytes on an Agilent Eclipse plus C18 column (4.6 mm × 100 mm, 1.8 μm) with a flow rate of 0.5 mL·min^−1. […] The equilibration time (10 min) of the sequence was added before the next injection. The column temperature was 30 °C. The optimized main parameters, namely curtain gas, collision gas, ion Spray voltage, and temperature, were set at 30 psi, 8 psi, −4000 V, and 600 °C, respectively.
The plasma sample (100 μL), IS (10 μL) and formic acid (10 μL) were mixed and vortexed for 1 min. Then, 1 mL of ethyl acetate was spiked into the mixed solution and centrifuged for 10 min at 14,000 rpm. The supernatant was transferred and evaporated with nitrogen gas. These residues were re-dissolved with 100 μL methanol. The final solutions were vortexed for 2 min and centrifuged for 10 min. The supernatant was injected into the HPLC-MS/MS and analyzed.
The pharmacokinetic study was conducted in accordance with the Guidelines for the Care and Use of Laboratory Animals by USA National Institutes of Health and approved by the Animal Ethics Committee of Tianjin University of Traditional Chinese Medicine (the permit number: TCM-LAEC2019023, Tianjin, China). Male Sprague-Dawley rats (200–240 g) were fed in the animal laboratory of Tianjin University of Traditional Chinese Medicine under the standard conditions. These rats were fed and given water for 1 week before experimentation. […] In order to investigate the influence of processing on the metabolic process of active ingredients in vivo, the same amount of raw CS was processed and administrated. Depending on the clinical dosage that was applied to the human body, the dosage of SF-CS extracts was 1.9 g kg^−1 (an equivalent dosage of 12.75 g kg^−1 raw CS) for oral administration, while extraction of SP-CS was 2.2 g kg^−1 (an equivalent dosage of 12.50 g kg^−1 raw CS). In order to investigate the influence of salt on the metabolic process of active ingredients in vivo, the dosage of SF-CS extracts was 1.9 g kg^−1 (an equivalent dosage of 12.75 g kg^−1 raw CS) and SF-CS extracts with salt ( 0.26 g kg^−1 ) were used to perform the pharmacokinetic study. […] The collected plasma was centrifuged for 10 min at 6000 rpm and stored at −20 °C before analysis.
All of the pharmacokinetic parameters were estimated with the DAS1.0 system (Medical College of Wannan, China). The maximum concentration of oral administration of CS (Cmax) and the time to reach Cmax (Tmax) were achieved from the concentration–time profile. All values were shown as mean ± standard deviation. Independent t-test was used to compare the pharmacokinetic parameters of the two processed CS.

[1] = oral SF-CS extract (A) 1.9 g kg^-1, n = 10
[2] = oral SF-CS extract (A) 1.9 g kg^-1, n = 10, mean ± SD
[3] = oral SP-CS extract (B) 2.2 g kg^-1, n = 10
[4] = oral SP-CS extract (B) 2.2 g kg^-1, n = 10, mean ± SD

Row | Structure (SMILES) | Tmax [1] | AUC(0-inf) [2] | Cmax [2] | AUC(0-t) [2] | MRT last [2] | Tmax [3] | AUC(0-inf) [4] | Cmax [4] | AUC(0-t) [4] | MRT last [4] | AUC(0–24h) (oral SF-CS extract) | T1/2ka [2] | T1/2α [2] | AUC(0–24h) (oral SP-CS extract) | T1/2ka [4] | T1/2α [4] | Shape of plasma concentration-time profile | Detection in rat plasma (after oral administration of the two processed products of CS, LLOQ 2 ng·mL^−1)
1 | O=c1c(O[C@@H]2O[C@H](CO)[C@H](O)[C@H](O)[C@H]2O)c(-c2ccc(O)c(O)c2)oc2cc(O)cc(O)c12 [Hyperin, hyperin] | 0.74 h | 331 ± 80 ng·h/mL | 21.3 ± 6.98 ng/mL | 172 ± 38 ng·h/mL | 9.19 ± 1.5 h | 0.11 h | 185 ± 153 ng·h/mL | 36.6 ± 21.9 ng/mL | 63 ± 27.8 ng·h/mL | 8.66 ± 2.37 h |  | 2.15 ± 4.21 h | 11.7 ± 6.73 h |  | 0.01 ± 0.01 h | 0.46 ± 0.30 h |  | 
2 | O=C(/C=C/c1ccc(O)c(O)c1)O[C@@H]1C[C@](O)(C(=O)O)C[C@@H](O)[C@H]1O [Chlorogenic acid, chlorogenic acid] | 3.84 h | 1670 ± 931 ng·h/mL | 257 ± 53 ng/mL | 1660 ± 931 ng·h/mL | 4.81 ± 0.35 h | 0.28 h | 438 ± 289 ng·h/mL | 175 ± 168 ng/mL | 417 ± 281 ng·h/mL | 5.06 ± 1.1 h |  | 0.63 ± 0.87 h | 6.53 ± 5.20 h |  | 0.02 ± 0.01 h | 0.84 ± 0.42 h | double-peak phenomenon | 
3 | O=c1c(O[C@@H]2O[C@H](CO)[C@@H](O)[C@H](O)[C@H]2O)c(-c2ccc(O)c(O)c2)oc2cc(O)cc(O)c12 [Isoquercitrin, isoquercitrin] |  |  |  |  |  |  |  |  |  |  |  |  |  |  |  |  |  | could not be tested

Second part, the compound after the results:

Row | Tmax [1] | AUC(0-inf) [2] | Cmax [2] | AUC(0-t) [2] | MRT last [2] | Tmax [3] | AUC(0-inf) [4] | Cmax [4] | AUC(0-t) [4] | MRT last [4] | AUC(0–24h) (oral SF-CS extract) | T1/2ka [2] | T1/2α [2] | AUC(0–24h) (oral SP-CS extract) | T1/2ka [4] | T1/2α [4] | Shape of plasma concentration-time profile | Detection in rat plasma (after oral administration of the two processed products of CS, LLOQ 2 ng·mL^−1) | Structure (SMILES)
4 | 0.99 h | 11.2 ± 10.8 ng·h/mL | 0.65 ± 0.39 ng/mL | 1.27 ± 0.76 ng·h/mL | 2.3 ± 0.98 h | 0.17 h | 2.33 ± 0.72 ng·h/mL | 1.43 ± 0.21 ng/mL | 1.31 ± 0.27 ng·h/mL | 2.13 ± 0.2 h | 1.27 ± 0.76 ng·h/mL | 2.27 ± 5.13 h | 24.6 ± 33.2 h | 1.31 ± 0.27 ng·h/mL | 0.04 ± 0.00 h | 0.10 ± 0.04 h |  |  | O=c1c(O[C@@H]2O[C@H](CO)[C@@H](O)[C@H](O)[C@H]2O)c(-c2ccc(O)cc2)oc2cc(O)cc(O)c12 [Astragalin, astragalin]
5 | 0.54 h | 3290 ± 591 ng·h/mL | 1210 ± 310 ng/mL | 3200 ± 635 ng·h/mL | 4.24 ± 1.45 h | 0.33 h | 2800 ± 951 ng·h/mL | 805 ± 307 ng/mL | 2570 ± 792 ng·h/mL | 5.68 ± 1.69 h | 3200 ± 635 ng·h/mL | 0.15 ± 0.12 h | 1.32 ± 0.86 h | 2570 ± 792 ng·h/mL | 0.05 ± 0.04 h | 1.40 ± 0.95 h |  |  | O=C(O)/C=C/c1ccc(O)cc1 [P-coumaric acid, p-coumaric acid]
6 | 3.75 h | 567 ± 376 ng·h/mL | 88.6 ± 39.6 ng/mL | 548 ± 384 ng·h/mL | 5.57 ± 1.74 h | 0.26 h | 178 ± 22 ng·h/mL | 31.8 ± 17.3 ng/mL | 129 ± 38 ng·h/mL | 8.18 ± 1.66 h |  | 1.12 ± 1.66 h | 7.72 ± 7.50 h |  | 0.02 ± 0.02 h | 3.35 ± 4.31 h | double-peak phenomenon |  | O=C(/C=C/c1ccc(O)c(O)c1)O[C@@H]1C[C@@](O)(C(=O)O)C[C@@H](O)[C@@H]1O [Neochlorogenic acid, neochlorogenic acid]
